For data set [1], the system named is BCL2. The data set is described as follows: Western blot of phosphorylated BCL2 (anti-apoptotic marker). The data set is classed as cell-based, human. Particulars: CBGA 5 μM and 10 μM on Aβ1-42 (5 μM) treated cells, FIG. 10. Here is the method: (§1) For Western blot analysis, control and the treated cells were harvested and lysed in cold lysis buffer (150 mM NaCl, 50 mM Tris-HCl, 1% Triton X-100, 0.1% SDS, 0.5% Sodium deoxycholate, and 1% protease-phosphatase inhibitor mixture). The supernatants were collected and protein concentrations were determined using Bio-Rad protein assay (Bio-Rad Laboratories). Whole cell lysates (10 μg) were subjected to 10% SDS-polyacrylamide electrophoresis and transferred to nitrocellulose membrane. The membranes were blocked with 5% skim milk in TBS-T (Tris-buffered saline with 0.05% Tween-20) for 1 h at RT and blotted overnight in the presence of monoclonal anti-mouse MAP2 (1:1000, Sigma, cat. no. M1406), Tau (1:1000, Invitrogen, cat. no. AHB0042), TUJI (1:5000, BioLegend, cat. no. MMS-435P), BAX (1:1000, Cell signaling, cat. no. 2772) and rabbit polyclonal total and phosphorylated BCL (1:1000, Cell signaling, antibodies #2827 and 2870). The membranes were washed and incubated for 1 h in RT with either horseradish peroxidase (HRP)-conjugated goat anti-mouse (1:2000) or goat anti-rabbit antibodies (1:2000) (Jackson Lab). The membranes were washed and developed using chemiluminescence detection kit (Millipore, Billerica, MA, USA) on Alpha Innotech FluorChem 8800. β-Actin or Vinculin was used as a loading control. […]

Data set [2] relates to BAX. In words: Western blot of BAX (pro-apoptotic marker). The data set is classed as cell-based, human. Particulars: CBGA alone or in the presence of Aβ1-42 (5 μM), FIG. 9. How it is done:
as §1
On the technique in general: A western blot detects proteins with antibodies after separation by electrophoresis.

In data set [3] the test system is CB1R. The data set is described as follows: Changes in CB1 receptor expression and translocation. The class given is cell-based. Particulars: CBGA 5 μM, 10 μM, dose-dependent; FIG. 11. The text has this: FIG. 11 Changes in receptor expression.
For data set [4], the system named is differentiated SH-SY5Y human neuronal cells. In words: MTT assay: cytotoxicity of the substance alone (primary screen, no added insult). The data set is classed as cell-based. How it is done:
(§2) Cell Culture and Differentiation: The SH-SY5Y human neuronal cell line was derived from neuroblastoma established from a metastatic bone tumor (patient with neuroblastoma). The cells were maintained in DMEM:F12 culture medium supplemented with 10% FBS and 1% Antibiotic-Antimycotic penicillin/streptomycin (growth medium) at 37° C. in a humidified atmosphere of 5% CO2. To induce neuronal differentiation of SH-SY5Y cells, culture media was replaced by a growth medium containing Retinoic Acid (RA) for 4-5 days at 37° C. in a humidified atmosphere of 5% CO2.
(§3) Compounds and Dosing Formulations: Selected cannabinoids: CBD, CBDA, CBC, CBG, CBGA, CBN, CBND and Δ^9-THC were procured from Cayman Chemicals and TRC. Ethanol (100%) was used as the solvent to prepare 1 and 10 mM stock solutions. Treatment concentrations for CBGA were prepared at 0.5 μM, 1.5 μM, 5 μM, 10 μM, 15 μM, 20 μM. Treatment concentrations for CBD, CBDA, CBC, CBN, CBND and Δ^9-THC were prepared at 0.5, 1.5, 5 and for CBG at 0.5 μM, 1.5 μM, 5 μM, 10 μM, 15 μM. Treatments were prepared directly in the control medium (DMEM:F12+5% FBS+1% Antibiotic-Antimycotic) by using appropriate stock solutions.
(§4) Evaluation of Cytotoxicity and Neuroprotection: Evaluation of cannabinoids neuroprotection and cytotoxicity on differentiated SH-SY5Y human neuronal cells was carried out by MTT (3-(4,5-dimethylthiazol-2-yl)-2,5-diphenyltetrazolium bromide) assay. Initially, cannabinoid cytotoxicity and neuroprotection were evaluated in a primary screen assay without the presence of cytotoxicity inducing insult agents. […] The Retinoic Acid (RA) differentiated SH-SY5Y neuronal cells were seeded onto 96-well plates (10,000 cells/well) in DMEM:F12 complete medium. Cells were differentiated for 4-5 days in the presence of RA.
(§5) MTT Assay: For the MTT assay, differentiated SH-SY5Y neuronal cells were treated with cannabinoids at various concentrations for 72 hrs in the presence of STSR at 75 nM, 100 nM, 150 nM and 200 nM or for 24 hrs in the presence of […] at 5 μM, respectively and processed to determine cytotoxicity. Briefly, 5 mg/mL of methylthiazolyldiphenyl-tetrazolium bromide (Sigma-Aldrich) stock solution was prepared in PBS. Following treatment of SH-SY5Y neuronal cells with cannabinoids for 72 hrs, the cells were incubated with 20 μL of MTT stock solution in 200 μL DMEM for 2 hrs at 37° C. Following subsequent washes with PBS, 200 μL of isopropanol was added to each well. The resulting change in color from dissolving formazan salt was immediately quantified using a spectrophotometer (BMG Labtech) at a wavelength of 570 nm. […] The results are illustrated in FIGS. 1-7.
Background: Tetrazolium assays rely on reduction of a dye to a coloured formazan, in cell work by metabolically active cells.

Data set [5] has as its system differentiated SH-SY5Y cells. The data set is described as follows: Immunocytochemistry of TuJ1 and neuronal morphology. The data set is classed as cell-based, human. Particulars: 5 μM and 10 μM, FIG. 14. How it is done: (§6) FIG. 14 Morphological characterization of CBGA, THC and CBN mediated changes in differentiated SH-SY5Y cells. SH-SY5Y cells were differentiated with RA (10 μM) for 5 days as indicated. (A) Representative confocal photomicrographs showing changes in the cellular distribution of Tuj1 in RA induced differentiated SH-SY5Y cells following treatment with CBGA, THC and CBN. (B) Histogram showing the effect of CBGA, CBN, THC on neurite length.

For data set [6], the system named is differentiated SH-SY5Y cells. In words: Confocal immunofluorescence of MAP2 and neurite morphology. Particulars: FIG. 16. The class given is cell-based, human. How it is done: SH-SY5Y cells were differentiated with RA (10 μM) for 5 days as indicated.
Accordingly, the effect of CBGA on the expression of MAP-2 was tested.

Data set [7] concerns differentiated SH-SY5Y human neuronal cells. The data set is described as follows: MTT assay: neuroprotection from Staurosporin (STSR) induced cytotoxicity. The data set is classed as cell-based. Here is the method: as §2, §3, §4, §5
In data set [8] the test system is differentiated SH-SY5Y cells. In words: Neurite length / neuritogenesis in differentiated SH-SY5Y cells. The class given is cell-based, human. Here is the method: FIG. 12 provides representative photomicrographs illustrating CBGA mediated changes in neurite elongation and branching in differentiated SH-SY5Y cells in a dose dependent manner. […] FIG. 12 also provides a histogram showing gradual changes in neurite length following treatment with CBGA.
as §6

For `CCCCCc1cc(O)c(C/C=C(\C)CCC=C(C)C)c(O)c1C(=O)O` [CBGA, 3-[(2E)-3,7-dimethylocta-2,6-dienyl]-2,4-dihydroxy-6-pentylbenzoic acid], the BCL2 expression entry in data set [1] is “abrogates the downregulation of BCL2”. In addition, the BAX expression entry in data set [2] is given as “attenuates BAX expression to the control levels”. Also, the “CB1R expression and translocation” value in data set [3] was “promotes translocation of CB1R to the Golgi apparatus”. Also, the “effect on survival in primary screen” value in data set [4] (1.5 μM, 5 μM and 15 μM, FIG. 1) is given as “pro-survival neuroprotective effect”. The “Cell Death (%) vs Vehicle Control” value in data set [4] (15 μM, pre-screen, FIG. 1) is on record as “pro-survival”. Besides, in data set [4] (CBGA alone up to 20 μM, FIG. 4), the “cell death under basal conditions” value is “did not result in cell death” and the “cell proliferation under basal conditions” value is “induced dose-dependent cell proliferation”. In addition, in data set [5], the “TuJ1 expression, immunocytochemistry” value was “promotes upregulation of TuJ1 expression”. Further, in data set [6] (CBGA 10 μM on otherwise untreated cells), the “MAP-2 expression, corrected total cell fluorescence” value was “promoted upregulation of MAP-2”. For the same compound, in data set [6] (CBGA alone), the neurite morphology result was “elongated neurites and enhanced arborization”. The MAP2 expression result in data set [6] (CBGA treatment of Aβ1-42 exposed cells) is on record as “restores MAP2 expression”. The “neuroprotection against STSR insult-induced cytotoxicity” value in data set [7] (0.5 μM to 20 μM with STSR 75 nM, FIG. 5) is reported as “significant dose-dependent neuroprotection”. For the same compound, the “neuroprotection against STSR-induced cytotoxicity” value in data set [7] (0.5 μM, 1.5 μM and 5 μM with STSR 75 nM, 72 hrs, FIG. 3) is reported as “significant neuroprotection”. Further, in data set [7] (5 μM with STSR 75 nM, compared to STSR-alone, One-Way ANOVA, FIG. 3), the “Cell Death (%) vs STSR at 75 nM, significance” value is recorded as “Statistically significant neuroprotection”. In addition, the “protection from STSR induced cytotoxicity” value in data set [7] (5 μM, 10 μM and 15 μM with STSR 75 nM, FIG. 6) is listed as “protected”. Also, the “Cell Death (%) vs STSR, significance” value in data set [7] (10 μM and 15 μM with STSR 75 nM, FIG. 6) was “Statistically significant neuroprotection”. The neurite length entry in data set [8] (24 hours post treatment, FIG. 14 (B)) was “increased neurite length significantly”. For the same compound, the “neuritogenesis (neurite length)” value in data set [8] (dose dependent, FIG. 12) was “significantly increased the neuritogenesis”.

The values above are taken from US20230381205A1, “COMPOSITIONS AND METHODS FOR TREATING NEURONAL DISORDERS WITH CANNABINOIDS” (INMED PHARMACEUTICALS INC., priority 2020, published 2023).
